Laboratory results from PMC10720383, “Acetylcholinesterase Inhibition in Rats and Humans Following Acute Fenitrothion Exposure Predicted by Physiologically Based Kinetic Modeling-Facilitated Quantitative In Vitro to In Vivo Extrapolation” (Environmental Science & Technology, 2023).
Read-outs that look alike come from different tables or passages of the source.

Assays:
CYP450s = test: in vitro; type: in vitro ADME, human; settings: gender-mixed
Description: In vitro incubations were performed to obtain kinetic parameters for the CYP450s-catalyzed conversion of FNT to FNO and MNP using gender-mixed rat and human liver microsomes. For the PON1-dominated detoxification of FNO to MNP, in vitro incubations were conducted with gender-mixed liver microsomes or plasma from rats and humans. Sample extraction with diisopropyl ether was performed before UPLC-PDA analysis. More details on in vitro incubations, sample extraction, UPLC-PDA analysis, and calculation of kinetic parameters are provided in the Supporting Information.
Supplementary materials and methods
Chemical and biological materials
FNT, acetylthiocholine iodide (ATC), 5,5’-dithiobis (2-nitrobenzoic acid) (DTNB), ethopropazine, tetraisopropyl pyrophosphoramide (iso-OMPA), perchloric acid (HClO4), trifluoroacetic acid (TFA), EDTA, MgCl2•6H2O, CaCl2•2H2O, NaH2PO4, Na2HPO4, Triton-X 100, Trizma® base and diisopropyl ether (DIPE) were ordered from Sigma-Aldrich (Amsterdam, The Netherlands). FNO was purchased from FUJIFILM Wako Pure Chemical Corporation (Tokyo, Japan), MNP and reduced nicotinamide adenine dinucleotide phosphate (NADPH) from Carbosynth Ltd. (Compton, UK). Acetonitrile (UPLC/MS grade), methanol (UPLC/MS grade) and ethanol (UPLC/MS grade) were ordered from Biosolve (Valkenswaard, The Netherlands). Chlorpyrifos-oxon was ordered from TRC-Canada (Toronto, Ontario, Canada). Ultrapure water was prepared using a Sartorius Arium® Pro ultrapure water system (Göttingen, Germany).
Human liver microsomes (pooled from 150 donors, mixed gender) and pooled male rat liver microsomes (Sprague-Dawley) were purchased from Corning (Amsterdam, The Netherlands). Pooled female rat liver microsomes (Sprague-Dawley) were ordered from Sigma-Aldrich (St. Louis, MO, USA). […] Human plasma (pooled from 25 donors, mixed gender) and rat plasma (Sprague-Dawley, mixed gender) were ordered from BioIVT (West Sussex, UK), and corresponding total protein concentrations were determined using BCA protein assay (Supporting Information). […]

erythrocyte AChE [1] = test: PBK modeling-facilitated QIVIVE and BMD analysis, human
Description: For toxicity prediction, the maximum blood FNO concentration was used as a dose metric relating AChE inhibition to acute FNT exposure (see section 3.3). Since the in vitro AChE inhibition under increasing FNO concentrations was tested in rat and human blood, these nominal concentrations could be used directly as the biological effective concentrations (in vivo maximum blood FNO concentrations), and no extra correction for differences in in vitro and in vivo protein binding was deemed necessary. Then the corresponding FNT dose levels resulting in these in vivo concentrations were derived via PBK modeling-facilitated reverse dosimetry. In doing so, the in vitro concentration–response relationship was converted to the predicted in vivo dose-dependent erythrocyte AChE inhibition, which was then compared to available in vivo toxicity data in rats and humans.[8],[39]
BMD modeling was used to derive POD values from the predicted in vivo dose-dependent data sets for rats and humans. A BMD value resulting in a 10% benchmark response (BMR) change with lower 95% confidence limit was defined as BMDL10, and the obtained values for rats and humans were evaluated against the reported NOAELs.[1],[11]−[13] Details and results of BMD analysis are provided in the Supporting Information. […]
BMD modeling was used to derive POD values from the predicted in vivo dose-response curves for rats and humans. The EFSA web-tool (https://efsa.openanalytics.eu/) integrated with the R package PROAST (version 70.0) developed by the Dutch National Institute for Public Health and the Environment (RIVM) was used for the BMD analysis. A BMD value resulting in a 10% benchmark response (BMR) change with lower 95% confidence limit was defined as BMDL10. Briefly, the continuous data were fitted to a set of models (Exponential, Hill, Inverse Exponential, and Log-Normal family models), and all fitted models excluding the FULL and NULL models were used for model averaging via a weighted average model. […]

[2] = cited from earlier work
erythrocyte AChE [3] = settings: human, highest dose tested, cited from earlier work

In the case of `COP(=S)(OC)Oc1ccc([N+](=O)[O-])c(C)c1` [FNT, O,O-dimethyl O-4-nitro-m-tolyl phosphorothioate], the Km (CYP450s; both sexes, human, pH 7.4, human liver microsomes, read-out: Km, FNT to FNO (CYP450s-catalyzed)) is reported as 21.6 µM, the Km (CYP450s; both sexes, human, pH 7.4, human liver microsomes, read-out: Km, FNT to MNP (CYP450s-catalyzed)) is reported as 4.08 µM and the Km (CYP450s; human liver microsomes, read-out: Km, FNT to MNP (CYP450s-catalyzed)) is reported as 4.08 µM. For the same compound, the “predicted POD for humans, fold lower than that of rats” value (erythrocyte AChE [1]; BMDL10 rat vs human) was 5 fold, the “predicted BMDL10 (POD)” value (erythrocyte AChE [1]; human, erythrocyte AChE inhibition, acute oral FNT exposure, 10% BMR, lower 95% confidence limit) was 0.26 mg/kg BW and the BMDU10 (erythrocyte AChE [1]; human, erythrocyte AChE inhibition, acute oral FNT exposure, upper confidence limit) was 0.66 mg/kg BW. For the same compound, the “LogP, reported data” value ([2]; not clear if experimental or in silico, ref WHO 2004) was 3.16, the “LogP, experimental data” value ([2]; ref JMPR 2003) was 3.319 and the “reported NOAEL” value (erythrocyte AChE [3]; APVMA, single dose human study) was 0.33 mg/kg BW. The “reported NOAEL” value (erythrocyte AChE [3]; JMPR, 4 day study in human volunteers) was 0.36 mg/kg BW.
